Data taken from PubChem BioAssay AID248 (DTP/NCI, 2004).
“And” between values parts separate entries of the source, which are not always exact repeats. Equal values may be shown once. Toxic doses and inconclusive results are not listed.

Tested on: L1210 leukemia ip in BDF1 mice, survival T/C
Test: NCI In Vivo Anticancer Drug Screen. Data for tumor model L1210 Leukemia (intraperitoneal) in B6D2F1 (BDF1) mice
Details: endpoint: mean survival time, higher = longer survival
Procedure, shortened: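 Ratio derived from survival: compound-dosed mice over vehicle-dosed mice, all bearing a transplantable tumor.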

[1] = dose: 50.0 mg/kg/injection, schedule: Q01DX009 (ip), vehicle: saline
[2] = dose: 100.0 mg/kg/injection, schedule: Q01DX009 (ip), vehicle: saline
[3] = dose: 100.0 mg/kg/injection, schedule: Q04DX003 (ip), vehicle: saline
[4] = dose: 200.0 mg/kg/injection, schedule: Q01DX009 (ip), vehicle: saline
[5] = dose: 200.0 mg/kg/injection, schedule: Q04DX003 (ip), vehicle: saline
[6] = dose: 400.0 mg/kg/injection, schedule: Q04DX003 (ip), vehicle: saline
[7] = dose: 100.0 mg/kg/injection, schedule: Q01DX009 (ip), vehicle: Klucel (hydroxypropylcellulose) (HPC)
[8] = dose: 200.0 mg/kg/injection, schedule: Q01DX009 (ip), vehicle: Klucel (hydroxypropylcellulose) (HPC)
[9] = dose: 400.0 mg/kg/injection, schedule: Q01DX009 (ip), vehicle: Klucel (hydroxypropylcellulose) (HPC)
[10] = dose: 100.0 mg/kg/injection, schedule: Q04DX003 (ip), vehicle: Klucel (hydroxypropylcellulose) (HPC)
[11] = dose: 200.0 mg/kg/injection, schedule: Q04DX003 (ip), vehicle: Klucel (hydroxypropylcellulose) (HPC)
[12] = dose: 400.0 mg/kg/injection, schedule: Q04DX003 (ip), vehicle: Klucel (hydroxypropylcellulose) (HPC)
[13] = dose: 200.0 mg/kg/injection, schedule: Q04DX002 (ip), vehicle: saline with Tween-80
[14] = dose: 400.0 mg/kg/injection, schedule: Q04DX002 (ip), vehicle: saline with Tween-80
[15] = dose: 100.0 mg/kg/injection, schedule: Q01DX001 (ip), vehicle: other
[16] = dose: 200.0 mg/kg/injection, schedule: Q01DX001 (ip), vehicle: other
[17] = dose: 50.0 mg/kg/injection, schedule: Q01DX001 (ip), vehicle: saline
[18] = dose: 100.0 mg/kg/injection, schedule: Q01DX001 (ip), vehicle: saline
[19] = dose: 200.0 mg/kg/injection, schedule: Q01DX001 (ip), vehicle: saline
[20] = dose: 400.0 mg/kg/injection, schedule: Q01DX001 (ip), vehicle: other
[21] = dose: 100.0 mg/kg/injection, schedule: Q04DX003 (ip), vehicle: saline with Tween-80
[22] = dose: 200.0 mg/kg/injection, schedule: Q04DX003 (ip), vehicle: saline with Tween-80
[23] = dose: 400.0 mg/kg/injection, schedule: Q04DX003 (ip), vehicle: saline with Tween-80
[24] = dose: 75.0 mg/kg/injection, schedule: Q01DX001 (ip), vehicle: carboxymethylcellulose (CMC)
[25] = dose: 400.0 mg/kg/injection, schedule: Q01DX001 (ip), vehicle: saline
[26] = dose: 100.0 mg/kg/injection, schedule: Q04DX002 (ip), vehicle: saline with Tween-80
[27] = dose: 400.0 mg/kg/injection, schedule: Q01DX009 (ip), vehicle: saline

O=c1cccc[nH]1
T/C (dose: 25.0 mg/kg/injection, schedule: Q01DX009 (ip), vehicle: saline): 100 % of control
T/C (dose: 45.0 mg/kg/injection, schedule: Q01DX009 (ip), vehicle: saline): 91 % of control
T/C [1]: 106 % of control and 93 % of control
T/C (dose: 65.0 mg/kg/injection, schedule: Q01DX009 (ip), vehicle: saline): 104 % of control
T/C [2]: 96 % of control and 110 % of control and 91 % of control
T/C (dose: 100.0 mg/kg/injection, schedule: Q04DX002 (ip), vehicle: saline): 95 % of control
T/C [3]: 91 % of control
T/C (dose: 150.0 mg/kg/injection, schedule: Q01DX009 (ip), vehicle: saline): 102 % of control
T/C [4]: 109 % of control and 110 % of control
T/C (dose: 200.0 mg/kg/injection, schedule: Q04DX002 (ip), vehicle: saline): 100 % of control
T/C [5]: 91 % of control
T/C [6]: 92 % of control

Cc1ccc(NC(=O)c2cc([N+](=O)[O-])cc([N+](=O)[O-])c2)cc1Cl
T/C [7]: 96 % of control
T/C [8]: 100 % of control
T/C [9]: 88 % of control

c1ccc(C2=NCCN=C2c2ccccc2)cc1
T/C [10]: 97 % of control
T/C [11]: 97 % of control
T/C [12]: 93 % of control

CC(=O)NC1C(OC(C)=O)OC2COCOC2C1OC(C)=O (stereo unspecified)
T/C (dose: 100.0 mg/kg/injection, schedule: Q01DX001 (ip), vehicle: saline with Tween-80): 97 % of control
T/C (dose: 200.0 mg/kg/injection, schedule: Q01DX001 (ip), vehicle: saline with Tween-80): 97 % of control
T/C (dose: 400.0 mg/kg/injection, schedule: Q01DX001 (ip), vehicle: saline with Tween-80): 105 % of control

N=C(N)CC(=O)CC(=N)N
T/C [1]: 91 % of control
T/C [2]: 91 % of control
T/C [4]: 98 % of control

CCC1=C/C(=C\c2ccc3c(c2)OCO3)C(=O)S1
T/C [13]: 89 % of control
T/C [14]: 89 % of control

CN(N=Nc1ccc(C(N)=O)cc1)C1CCCCC1
T/C [15]: 91 % of control
T/C [16]: 107 % of control

c1ccc(NC2CCCCC2)nc1
T/C (dose: 100.0 mg/kg/injection, schedule: Q04DX003 (ip), vehicle: gum acacia): 95 % of control
T/C (dose: 200.0 mg/kg/injection, schedule: Q04DX003 (ip), vehicle: gum acacia): 98 % of control
T/C (dose: 400.0 mg/kg/injection, schedule: Q04DX003 (ip), vehicle: gum acacia): 96 % of control

Cc1ccc(S(=O)(=O)OCCN(CCO)c2cn(C(c3ccccc3)(c3ccccc3)c3ccccc3)c(=O)n(C(c3ccccc3)(c3ccccc3)c3ccccc3)c2=O)cc1
T/C [17]: 93 % of control
T/C [18]: 93 % of control
T/C [19]: 93 % of control

Cn1cc(C2Cc3ccccc3NC3=C2C(=O)CC(C)(C)C3)c2ccccc21 (stereo unspecified)
T/C [15]: 103 % of control
T/C [16]: 92 % of control
T/C [20]: 86 % of control

CN(C)CCCNc1cc2c3ccccc3ncc2c2ccccc12
T/C (dose: 100.0 mg/kg/injection, schedule: Q01DX009 (ip), vehicle: saline with Tween-80): 98 % of control
T/C [21]: 108 % of control
T/C (dose: 200.0 mg/kg/injection, schedule: Q01DX009 (ip), vehicle: saline with Tween-80): 93 % of control
T/C [22]: 113 % of control
T/C (dose: 400.0 mg/kg/injection, schedule: Q01DX009 (ip), vehicle: saline with Tween-80): 108 % of control
T/C [23]: 101 % of control

COc1ccc2nc3cc(Cl)ccc3c(Nc3ccc(O)c(CNCCO)c3)c2c1
T/C [24]: 101 % of control

COC(=O)C(OC)(OC)C(OC)OC
T/C [18]: 97 % of control
T/C [19]: 103 % of control
T/C [25]: 106 % of control

CCOCC(=O)C(C#N)c1ccc(Cl)c(Cl)c1 (stereo unspecified)
T/C (dose: 100.0 mg/kg/injection, schedule: Q01DX001 (ip), vehicle: carboxymethylcellulose (CMC)): 94 % of control

Cc1ccc(N=Nc2ccc(N(C)C)cc2)cc1
T/C [7]: 90 % of control
T/C [8]: 92 % of control
T/C [9]: 90 % of control

CC1=C(Br)C(=O)NC1=O
T/C [21]: 107 % of control
T/C [22]: 101 % of control
T/C [23]: 107 % of control

c1ccc2n[se]nc2c1
T/C (dose: 12.5 mg/kg/injection, schedule: Q04DX003 (ip), vehicle: saline): 86 % of control
T/C (dose: 25.0 mg/kg/injection, schedule: Q04DX003 (ip), vehicle: saline): 103 % of control

COc1cc(CC2COCC2Cc2ccc3c(c2)OCO3)cc(OC)c1OC (stereo unspecified)
T/C (dose: 25.0 mg/kg/injection, schedule: Q01DX009 (ip), vehicle: acetone): 110 % of control
T/C (dose: 50.0 mg/kg/injection, schedule: Q01DX009 (ip), vehicle: acetone): 101 % of control
T/C (dose: 100.0 mg/kg/injection, schedule: Q01DX009 (ip), vehicle: acetone): 103 % of control

CC(C)=CCCC(C)CCOc1cccc(C)c1 (stereo unspecified)
T/C [26]: 105 % of control
T/C [13]: 99 % of control
T/C [14]: 89 % of control

NC(=S)N1CCCCC1
T/C [18]: 98 % of control
T/C [19]: 96 % of control

O=C1OC2C(I)C3CCC2C1C3 (stereo unspecified)
T/C [2]: 98 % of control
T/C [3]: 102 % of control
T/C [4]: 102 % of control
T/C [5]: 105 % of control
T/C [27]: 98 % of control
T/C [6]: 98 % of control

Cc1nc(N)nc2c1CCC(=O)N2
T/C [10]: 100 % of control
T/C [11]: 89 % of control
T/C [12]: 94 % of control

Cc1cc(OC(=O)c2ccccc2)cc(C)c1OC(=O)c1ccccc1
T/C [26]: 96 % of control
T/C [13]: 100 % of control
T/C [14]: 96 % of control

CCOC(=O)CNCc1ccc(F)cc1
T/C [2]: 105 % of control
T/C [3]: 104 % of control
T/C [4]: 103 % of control
T/C [5]: 110 % of control
T/C [27]: 88 % of control
T/C [6]: 100 % of control

CC(C)/C(=C\c1ccccc1)C(=O)c1ccccc1
T/C [21]: 104 % of control
T/C [22]: 110 % of control

O=C1C(=O)c2ccccc2C(O)=C1C(C1=C(O)c2ccccc2C(=O)C1=O)c1ccc(Cl)c(Cl)c1
T/C [24]: 94 % of control

O=[N+]([O-])c1ccc(Oc2ccc[n+]([O-])c2)c([N+](=O)[O-])c1
T/C (dose: 50.0 mg/kg/injection, schedule: Q01DX009 (ip), vehicle: Klucel (hydroxypropylcellulose) (HPC)): 102 % of control
T/C [7]: 102 % of control
T/C [21]: 96 % of control

C=CCSc1nc(N)nc2c1ncn2C1CC(O)C(CO)O1 (stereo unspecified)
T/C (dose: 100.0 mg/kg/injection, schedule: Q01DX005 (ip), vehicle: saline): 102 % of control
T/C [2]: 102 % of control
T/C (dose: 200.0 mg/kg/injection, schedule: Q01DX005 (ip), vehicle: saline): 104 % of control
T/C [4]: 109 % of control
T/C [27]: 109 % of control

COc1ccc2c3c1OC1C(O)C=CC4C(C2)N(C)CCC341 (stereo unspecified)
T/C [18]: 98 % of control

O=NN(CCCl)C(=O)N(C1CCCCC1)C1CCCCC1
T/C (dose: 177.0 mg/kg/injection, schedule: Q01DX009 (ip), vehicle: carboxymethylcellulose (CMC)): 121 % of control
T/C (dose: 400.0 mg/kg/injection, schedule: Q01DX009 (ip), vehicle: carboxymethylcellulose (CMC)): 117 % of control
T/C (dose: 600.0 mg/kg/injection, schedule: Q01DX009 (ip), vehicle: carboxymethylcellulose (CMC)): 166 % of control

CC(C)(CC(=O)O)NC(=O)c1ccccc1
T/C [15]: 95 % of control
T/C [16]: 106 % of control
T/C [20]: 103 % of control

Cc1c(Cl)c(C)c(Cl)c(O)c1Cl
T/C [21]: 97 % of control
T/C [22]: 96 % of control
T/C [23]: 97 % of control

COC1OCC(NC(C)=O)C(O)C1O (stereo unspecified)
T/C [17]: 102 % of control
T/C [18]: 102 % of control
T/C [19]: 100 % of control
T/C [25]: 107 % of control

Cn1cc(C2=CC(=O)C=CC2=O)c2ccccc21
T/C (dose: 5.0 mg/kg/injection, schedule: Q01DX001 (ip), vehicle: saline): 102 % of control
T/C (dose: 10.0 mg/kg/injection, schedule: Q01DX001 (ip), vehicle: saline): 111 % of control
T/C (dose: 20.0 mg/kg/injection, schedule: Q01DX001 (ip), vehicle: saline): 104 % of control
T/C (dose: 40.0 mg/kg/injection, schedule: Q01DX001 (ip), vehicle: saline): 98 % of control
